From US9382222B2, “Benzyl sulfonamide derivatives as RORc modulators” (Genentech, Inc., priority 2012, dated 2016)

Molecular target: T1, RORc ligand binding domain (Homo sapiens, UniProt P51449)
T1 construct: host or cells: E. coli
T1 sequence (P51449 269-508 limits assumed): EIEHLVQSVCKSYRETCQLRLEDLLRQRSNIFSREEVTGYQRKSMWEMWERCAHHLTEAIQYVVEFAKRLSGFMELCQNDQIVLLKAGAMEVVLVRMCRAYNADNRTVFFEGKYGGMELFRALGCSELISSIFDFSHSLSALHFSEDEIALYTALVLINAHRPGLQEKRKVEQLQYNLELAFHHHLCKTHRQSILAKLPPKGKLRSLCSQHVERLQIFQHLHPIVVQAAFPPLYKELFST
Assay: In Vitro RORc Ligand Binding Assay
Conditions: displacement of 25-[3H]hydroxycholesterol (6 nM), 0.6 ug/mL RORc receptor, 3 h at 25° C.
Method: In Vitro RORc Ligand Binding Assay This assay was used to determine a compound's potency in inhibiting activity of RORc by determining, Kiapp, IC50, or percent inhibition values. […] On day of the assay, 100 uL of 0.05% CHAPS (in deionized H2O) was added to all wells of the GFB Unifilter plate and allowed soak for 1 h. A wash buffer of 50 mM HEPES (pH 7.4), 150 mM NaCl, and 5 mM MgCl2 was prepared to wash the filter plate. To prepare an assay buffer, BSA was added to the wash buffer to reach 0.01% and DTT was added to reach 1 mM. […] The 20× compound stocks were diluted in DMSO with Assay Buffer 4-fold to reach 5× the final test concentration in 25% DMSO (10 uL compound+30 uL Assay Buffer). Solutions were mixed by aspiration several times with a pipette set on 50 uL volume. For the assay, 10 uL of 5× compound stock solutions in 25% DMSO were added to the assay plate in duplicate. For two point screening, 10 mM stock compound solutions were diluted in DMSO to obtain 200 uM (20× the high test concentration) and then diluted 10-fold further to reach 20 uM (20× the low test concentration). The 20× stocks were diluted 4-fold with Assay Buffer (10 uL compound+30 uL Assay Buffer) to reach 5× the test concentrations (50 uM and 5 uM) and 10 uL were added to two assay plates for the duplicate wells. […] Add 20 uL to all wells to reach 6 nM final concentration in the assay. […] Stock receptor solution was diluted in assay buffer to obtain 1.5 ug/mL in Assay Buffer. 20 uL was added to all wells. For No Receptor samples, 20 uL Assay Buffer was substituted for receptor solution. […] Following addition to the wells, the plates were incubated 3 h at 25° C. Using a Packard Filtermate Harvester, the filter plate were washed 4 times following transfer of the incubated samples. Plates were dry-filtered completely (2 h at 50° C. or overnight at room temperature). 50 uL Microscint 0 was added to all wells and read on Topcount protocol Inverted. […] For NSB wells, 1 uM 25-hydroxycholesterol was also present.

IC50 [nM] | Compound
8 | CC(C)CN(Cc1ccc(F)cc1)S(=O)(=O)c1ccc(NC2CCN(S(C)(=O)=O)CC2)cc1 [Compound 2, N-(4-Fluoro-benzyl)-N-isobutyl-4-(1-methanesulfonyl-piperidin-4-ylamino)-benzenesulfonamide]
198 | CC(=O)N1CCC(Oc2ccc(S(=O)(=O)N(CC(C)C)c3cccc(Cl)c3)cc2)CC1 [Compound 33, 4-(1-Acetyl-piperidin-4-yloxy)-N-(3-chloro-phenyl)-N-isobutyl-benzenesulfonamide]
299 | CC(C)CN(c1ccc(F)cc1)S(=O)(=O)c1ccc(C(=O)N2CCN(S(C)(=O)=O)CC2)cc1 [Compound 53, N-(4-Fluoro-phenyl)-N-isobutyl-4-(4-methanesulfonyl-piperazine-1-carbonyl)-benzenesulfonamide]
87 | CC(C)CN(c1ccccc1Cl)S(=O)(=O)c1ccc(N2CCN(S(C)(=O)=O)CC2)cc1 [Compound 22, N-(2-Chloro-phenyl)-N-isobutyl-4-(4-methanesulfonyl-piperazin-1-yl)-benzenesulfonamide]
8 | CC(C)CN(Cc1ccccc1C(F)(F)F)S(=O)(=O)c1ccc(N2CCN(S(C)(=O)=O)CC2)c(F)c1 [Compound 75, 3-Fluoro-N-isobutyl-4-(4-methanesulfonyl-piperazin-1-yl)-N-(2-trifluoromethyl-benzyl)-benzenesulfonamide]
244 | CC(=O)N1CCN(c2ccc(S(=O)(=O)N(Cc3cccc(C(F)(F)F)c3)CC(C)C)cc2)CC1 [Compound 58, 4-(4-Acetyl-piperazin-1-yl)-N-isobutyl-N-(3-trifluoromethyl-benzyl)-benzenesulfonamide]
7 | CC(C)CN(c1cccc(Cl)c1)S(=O)(=O)c1ccc(NC2CCN(S(C)(=O)=O)CC2)cc1 [Compound 32, N-(3-Chloro-phenyl)-N-isobutyl-4-(1-methanesulfonyl-piperidin-4-ylamino)-benzenesulfonamide]
62 | CC(C)CN(c1cccc(Cl)c1)S(=O)(=O)c1ccc(N2CCN(S(=O)(=O)N(C)C)CC2)cc1 [Compound 19, 4-{4-[(3-Chloro-phenyl)-isobutyl-sulfamoyl]-phenyl}-piperazine-1-sulfonic acid dimethylamide]
99 | CC(=O)N1CCN(c2ccc(S(=O)(=O)N(CC(C)C)c3ccccc3Cl)cc2)CC1 [Compound 21, 4-(4-Acetyl-piperazin-1-yl)-N-(2-chloro-phenyl)-N-isobutyl-benzenesulfonamide]
414 | CC(C)CN(c1cccc(Cl)c1)S(=O)(=O)c1cccc(N2CCN(S(C)(=O)=O)CC2)c1 [Compound 26, N-(3-Chloro-phenyl)-N-isobutyl-3-(4-methanesulfonyl-piperazin-1-yl)-benzenesulfonamide]
